# Assay results published in patent US10201617B2, “3-substituted piperidine-2, 6-diones and non-covalent complexes with albumin” (Zhuhai Beihai Biotech Co., Ltd., priority 2014, dated 2019).
# Columns and labels:
# [1] = Persistence in plasma: incubation with human plasma at 37° C., LC-MS/MS; format: in vitro ADME; settings: for Peak Area Ratio (Analyte/incubation sample): Human Plasma
# Method: Test compounds and control (procaine) were incubated at a concentration of 10 μM with human plasma. […]
# After quenching by acetonitrile, the plates were capped, vortexed, and centrifuged at 3000 rpm for 10 minutes. The supernatant was injected into LC-MS/MS.
# [2] = Persistence control: incubation in PBS buffer (pH 7.4) at 37° C., LC-MS/MS; format: physicochemical; settings: for Peak Area Ratio (Analyte/incubation sample): PBS Buffer, 24 hr; for % Remaining after 24-hr Incubation at 37° C.: PBS buffer
# [3] = regardless of pH; cited from earlier work
# CYP1A2 = molecular target: T1, CYP1A2 (Homo sapiens, UniProt P05177); settings: cited from earlier work
# T1 sequence (P05177 1-516): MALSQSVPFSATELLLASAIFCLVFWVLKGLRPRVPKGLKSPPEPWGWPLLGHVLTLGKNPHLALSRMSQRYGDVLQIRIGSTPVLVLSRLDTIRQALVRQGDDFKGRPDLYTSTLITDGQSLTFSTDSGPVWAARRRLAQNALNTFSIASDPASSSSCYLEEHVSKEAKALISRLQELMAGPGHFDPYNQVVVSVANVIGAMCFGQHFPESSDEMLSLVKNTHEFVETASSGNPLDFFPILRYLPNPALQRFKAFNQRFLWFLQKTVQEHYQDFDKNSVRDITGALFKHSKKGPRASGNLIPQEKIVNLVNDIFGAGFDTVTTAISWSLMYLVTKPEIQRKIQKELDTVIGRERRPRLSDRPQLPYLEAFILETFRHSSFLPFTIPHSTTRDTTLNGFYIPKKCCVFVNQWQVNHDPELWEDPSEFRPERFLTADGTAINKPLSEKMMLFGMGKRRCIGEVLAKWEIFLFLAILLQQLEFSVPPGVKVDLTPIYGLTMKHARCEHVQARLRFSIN
# CYP3A = settings: cited from earlier work
Compound,"Peak Area Ratio (Analyte/incubation sample) ([1]; 0 hr, Replicate 1)","Peak Area Ratio (Analyte/incubation sample) ([1]; 0 hr, Replicate 2)","Peak Area Ratio (Analyte/incubation sample) ([1]; 24 hr, Replicate 1)","Peak Area Ratio (Analyte/incubation sample) ([1]; 24 hr, Replicate 2)","% Remaining after 24-hr Incubation at 37° C. ([1]; human, plasma, 24 h, 10 μM) [%]",Peak Area Ratio (Analyte/incubation sample) ([2]; Replicate 1),Peak Area Ratio (Analyte/incubation sample) ([2]; Replicate 2),% Remaining after 24-hr Incubation at 37° C. ([2]; Average) [%],% Remaining after 24-hr Incubation at 37° C. ([2]; Replicate 1) [%],% Remaining after 24-hr Incubation at 37° C. ([2]; Replicate 2) [%],solubility [3],substrate of CYP1A2 liver enzyme (CYP1A2),substrate of CYP3A liver enzyme (CYP3A)
"CCN(CC)CCOC(=O)c1ccc(N)cc1 [Procaine, procaine]",0.311,0.451,0.0,0.0,0.0,0.413,0.419,109,108.40,109.97,–,–,–
Nc1cccc2c1C(=O)N(C1CCC(=O)NC1=O)C2=O (stereo not shown) [pomalidomide],–,–,–,–,–,–,–,–,–,–,about 0.01 mg/mL,substrate,substrate
